The values that follow come from the supplement of paper PMC4862054.

A value given as a limit tells only on which side of the number the result lay.

The subject of one assay is CAL-120. The conditions noted are these: 72 h. As for the experimental part:
(§1)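 Drug sensitivity and resistance testing (DSRT) of breast cancer cell lines in 384-well plates, 5 concentrations in 10-fold dilutions over a compound-specific 10,000-fold range. After 72 h, cytotoxicity was read by CellTox Green fluorescence and viability by CellTiter-Glo luminescence (multiplexed), normalised to DMSO and benzethonium chloride controls. EC50 is the inflection point of the fitted dose-response curve (bottom asymptote free, so it can be relative for partial curves) and is censored at the highest tested concentration. Rows with DSS 0 (no meaningful response) were excluded.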

Assay [1] relates to BT-474. The conditions noted are these: 72 h. The method, then: as §1
For assay [2], the system named is DU-4475. The conditions noted are these: 72 h. As for the experimental part:
as §1

The test system of assay [3] is MDA-MB-231. The note with it: 72 h. As for the experimental part: as §1
The test system of assay [4] is CAL-148. The conditions noted are these: 72 h. The method in brief: (§2)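 Per-plate normalisation used 0.1 % DMSO and a positive kill control. Breast cancer cell lines (20 µl suspension) were seeded into 384-well plates containing compound at 5 concentrations in 10-fold steps across a compound-specific 10,000-fold range, incubated for 72 h, and read first for CellTox Green fluorescence (485/520 nm), then for CellTiter-Glo luminescence. EC50 was fitted from the dose-response curves and censored at the top concentration.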

The subject of assay [5] is HDQ-P1. The note with it: 72 h. A digest of the protocol: as §2
Assay [6] concerns HDQ-P1. The conditions noted are these: 72 h. As for the experimental part:
as §1
This is another data set of the same source.

For assay [7], the system named is CAL-51. The note with it: 72 h. The method, then:
as §1

Assay [8] has as its system MFM-223. The note with it: 72 h. As for the experimental part:
as §1

The test system of assay [9] is CAL-148. The note with it: 72 h. As for the experimental part: as §1
This is another data set of the same source.

Another assay concerns HCC1599. The note with it: 72 h. As for the experimental part: as §1
The test system of assay [10] is HCC1143. The note with it: 72 h. As for the experimental part:
as §1

The test system of assay [11] is MDA-MB-453. The note with it: 72 h. As for the experimental part: as §1
The test system of assay [12] is MDA-MB-468. The note with it: 72 h. The method, then: as §1
The next assay has as its system Hs578T. The note with it: 72 h. The method, then: as §1
Assay [13] deals with MDA-MB-436. The conditions noted are these: 72 h. The method, then:
as §1

The next assay deals with MCF-10A. The conditions noted are these: 72 h. The method, then: as §1
Assay [14] relates to HCC1937. The note with it: 72 h. As for the experimental part:
as §1

Assay [15] has as its system SK-BR-3. The note with it: 72 h. A digest of the protocol: (§3)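 EC50 is the value from a fitted percent-inhibition dose-response curve, censored at the highest concentration, and rows with zero drug sensitivity score were not kept. The underlying assay seeded breast cancer cell lines in 20 µl onto 384-well plates pre-loaded with compound in 5 µl medium for 72 h. Viability was then read by CellTiter-Blue fluorescence at 560/590 nm after 2 h at 37 °C, with each plate normalised to vehicle and a positive kill control.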

The test system of assay [16] is MDA-MB-468. The conditions noted are these: 72 h. The method in brief: as §3
This is another data set of the same source.

Assay [17] deals with HCC1937. The note with it: 72 h. The method in brief: as §3
This is another data set of the same source.

The test system of assay [18] is MDA-MB-231. The note with it: 72 h. A digest of the protocol: as §3
The source holds these as a separate data set.

Assay [19] has as its system CAL-51. As to the kind of experiment: normalised response (% of control), CellTiter-Glo; higher = more viable cells (100 = DMSO, 0 = benzethonium chloride kill control). The conditions noted are these: incubation time: 72 h. A digest of the protocol: (§4)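 Every value is a normalised signal taken at one concentration of a dilution series. Compound was placed in 384-well plates at 5 concentrations in 10-fold steps over a compound-specific 10,000-fold range, and 20 µl of breast cancer cell suspension was seeded onto it. After 72 h, CellTox Green fluorescence (485/520 nm) was measured first and CellTiter-Glo luminescence second, following 10 min at room temperature. Each plate was scaled to 0.1 % DMSO (100) and a positive kill control (0).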
For orientation: ATP-based viability assays read luminescence as a measure of living cells.

Assay [20] has as its system MFM-223. The description is as above. The conditions noted are these: incubation time: 72 h. The method in brief:
as §4

Assay [21] concerns CAL-148. The assay is described as above. The conditions noted are these: incubation time: 72 h. A digest of the protocol: as §4
Assay [22] concerns MDA-MB-436. The assay is described as above. The note with it: incubation time: 72 h. The method in brief:
as §4

For assay [23], the system named is SK-BR-3. The description is as above. The note with it: incubation time: 72 h. A digest of the protocol: as §4
The subject of a further assay is BT-549. The description is as above. The conditions noted are these: incubation time: 72 h. A digest of the protocol: as §4
The test system of assay [24] is HCC1143. The description is as above. The conditions noted are these: incubation time: 72 h. A digest of the protocol:
as §4

The subject of assay [25] is MDA-MB-453. Described as above. The note with it: incubation time: 72 h. The method in brief:
as §4

Assay [26] concerns HDQ-P1. Described as above. The note with it: incubation time: 72 h. The method in brief:
as §4

Assay [27] deals with BT-474. The assay is described as above. The conditions noted are these: incubation time: 72 h. The method in brief: as §4
Another assay deals with CAL-85-1. The description is as above. The conditions noted are these: incubation time: 72 h. A digest of the protocol:
as §4

Assay [28] relates to DU-4475. Described as above. The conditions noted are these: incubation time: 72 h. The method in brief: as §4
Assay [29] has as its system MDA-MB-468. The assay is described as above. The note with it: incubation time: 72 h. The method in brief:
as §4

The subject of assay [30] is MDA-MB-231. The description is as above. The conditions noted are these: incubation time: 72 h. A digest of the protocol:
as §4

`O=C(NC[C@H](O)CO)c1ccncc1Nc1ccc(I)cc1F` [Pimasertib]: the “EC50, CellTox Green” value in the assay on CAL-120 came out at 0.783 µM; in the assay on BT-474 [1] it was 2.84 µM; with DU-4475 [2], 0.0481 µM; in the assay with MDA-MB-231 [3] it was 0.0166 µM. Further, the “EC50, CellTiter-Glo” value with CAL-148 [4] was 1.01 µM; with HDQ-P1 [5], 0.0186 µM.
On to `C[C@]12C=CC(=O)C=C1CC[C@@H]1[C@@H]2[C@@H](O)C[C@@]2(C)[C@H]1CC[C@]2(O)C(=O)CO` [Prednisolone], for which the “EC50, CellTox Green” value in the assay with HDQ-P1 [6] turned out to be 7.32 µM.
Consider `Cn1cc(CNCC2CCN(c3ncc(C(=O)NO)cn3)CC2)c2ccccc21` [Quisinostat], for which the “EC50, CellTox Green” value in the assay on CAL-51 [7] is 0.116 µM; with MFM-223 [8] it was 0.0588 µM; in the assay with CAL-148 [9] it was 0.0521 µM; with HCC1599 it was 0.106 µM; in the assay on HCC1143 [10] it was 0.134 µM; in the assay with MDA-MB-453 [11], > 1 µM. The “EC50, CellTox Green” value in the assay with CAL-120 came to 0.0656 µM; with HDQ-P1 [6], 0.396 µM; in the assay on BT-474 [1], 0.036 µM; in the assay with DU-4475 [2], 0.0956 µM; in the assay on MDA-MB-468 [12] it was 0.00587 µM; with Hs578T, 0.0603 µM. The “EC50, CellTox Green” value in the assay on MDA-MB-231 [3] was 0.0725 µM. Besides, the “EC50, CellTiter-Glo” value came to 0.0283 µM in the assay on CAL-148 [4] and 0.148 µM in the assay with HDQ-P1 [5].
Turning to `CC[C@@]1(O)C(=O)OCc2c1cc1n(c2=O)Cc2cc3c(CN(C)C)c(O)ccc3nc2-1` [Topotecan], the “EC50, CellTox Green” value was determined as 0.195 µM in the assay on CAL-51 [7]; 0.0556 µM with CAL-148 [9]; 2.72 µM in the assay on MDA-MB-436 [13]; 0.748 µM in the assay on HCC1599; 1.88 µM in the assay on MCF-10A; 2.57 µM in the assay with CAL-120. Further, the “EC50, CellTox Green” value is > 10 µM with HDQ-P1 [6]; > 10 µM in the assay on BT-474 [1]; 2.24 µM in the assay with MDA-MB-468 [12]; 3.07 µM with HCC1937 [14]; 0.369 µM in the assay with MDA-MB-231 [3]. For the same compound, the “EC50, CellTiter-Blue viability” value with SK-BR-3 [15] is 0.052 µM; with MDA-MB-468 [16] it was 0.0719 µM; in the assay on HCC1937 [17], 0.0303 µM; in the assay on MDA-MB-231 [18], 0.612 µM. Further, in the assay with CAL-148 [4], the “EC50, CellTiter-Glo” value amounted to 0.221 µM.
Turning to `CC[C@@]1(O)C(=O)OCc2c1cc1n(c2=O)Cc2cc3c(CN(C)C)c(O)ccc3nc2-1` [Topotecan] (100 nM), the normalised response in the assay on CAL-51 [19] was determined as 98.2%; with MFM-223 [20], 97.4%; in the assay on CAL-148 [21] it was 62.4%; with MDA-MB-436 [22], 75.2%; with SK-BR-3 [23], 66.3%; in the assay on BT-549 it was 84.2%. The normalised response with HCC1143 [24] stood at 92.9%; in the assay on MDA-MB-453 [25], 133%; in the assay on HDQ-P1 [26], 95.7%; in the assay on BT-474 [27], 91.9%; in the assay on CAL-85-1, 85.7%; in the assay on DU-4475 [28] it was 77.9%. The normalised response in the assay on MDA-MB-468 [29] turned out to be 62.5%; in the assay on MDA-MB-231 [30] it was 92.8%.
